Ki data for 17 compounds are collected here from US7115600B2, “Histamine-3 receptor modulators” (Pfizer Inc., priority 2004, dated 2006).

As a reminder, the Ki is the dissociation constant of the complex between target and ligand, obtained from inhibition or displacement.

The assay has as its target T1, rat histamine H3 receptors (Rattus norvegicus, UniProt Q9QYN8).
T1 construct: Frozen rat frontal brain or frozen human post-mortem frontal brain is homogenized; from tissue; host or cells: rat frontal brain membranes
Put plainly: Rat Histamine H3 Receptor Binding. As to conditions: frozen rat frontal brain membranes; radioligand 1 nM 3H-N-methyl-histamine; 1 hour incubation; read-out: rH3 Ki.

T1 sequence (Q9QYN8 whole entry): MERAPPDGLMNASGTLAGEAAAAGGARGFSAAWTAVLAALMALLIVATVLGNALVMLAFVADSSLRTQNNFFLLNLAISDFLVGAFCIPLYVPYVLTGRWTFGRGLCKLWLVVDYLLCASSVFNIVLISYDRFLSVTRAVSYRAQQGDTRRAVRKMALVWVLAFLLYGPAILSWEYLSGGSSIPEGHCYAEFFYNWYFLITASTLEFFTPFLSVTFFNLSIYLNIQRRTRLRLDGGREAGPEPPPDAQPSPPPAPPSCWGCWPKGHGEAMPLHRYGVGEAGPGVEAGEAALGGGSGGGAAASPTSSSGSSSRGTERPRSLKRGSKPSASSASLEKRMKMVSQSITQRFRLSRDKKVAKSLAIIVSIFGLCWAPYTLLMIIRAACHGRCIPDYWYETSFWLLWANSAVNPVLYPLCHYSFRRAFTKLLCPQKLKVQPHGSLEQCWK
Experimental: The in vitro affinity of the compounds in the present invention at the rat or human histamine H3 receptors can be determined according to the following procedure. Frozen rat frontal brain or frozen human post-mortem frontal brain is homogenized in 20 volumes of cold 50 mM Tris HCl containing 2 mM MgCl2 (pH to 7.4 at 4 degrees C.). The homogenate is then centrifuged at 45,000 G for 10 minutes. The supernatant is decanted and the membrane pellet resuspended by Polytron in cold 50 mM Tris HCl containing 2 mM MgCl2 (pH to 7.4 at 4 degrees C.) and centrifuged again. The final pellet is resuspended in 50 mM Tris HCl containing 2 mM MgCl2 (pH to 7.4 at 25 degrees C.) at a concentration of 12 mg/mL. Dilutions of compounds are made in 10% DMSO/50 mM Tris buffer (pH 7.4) (at 10× final concentration, so that the final DMSO concentration is 1%). Incubations are initiated by the addition of membranes (200 microliters) to 96 well V-bottom polypropylene plates containing 25 microliters of drug dilutions and 25 microliters of radioligand (1 nM final concentration 3H—N-methyl-histamine). After a 1 hour incubation, assay samples are rapidly filtered through Whatman GF/B filters and rinsed with ice-cold 50 nM Tris buffer (pH 7.4) using a Skatron cell harvester. Radioactivity is quantified using a BetaPlate scintillation counter. The percent inhibition of specific binding can then be calculated.

As for `CC1CCCN(C[C@H]2C[C@H](c3ccc(CN4CCCC4)cc3)C2)C1` (relative stereo) [Example 118, trans-3-Methyl-1-[3-(4-pyrrolidin-1-ylmethyl-phenyl)-cyclobutylmethyl]-piperidine], the Ki amounted to 0.65 nM.

Consider `c1ccc(OCC2CC(c3ccc(CN4CCCC4)cc3)C2)nc1` (centres unmarked) [Example 42, 2-[3-(4-Pyrrolidin-1-ylmethyl-phenyl)-cyclobutylmethoxy]-pyridine], for which the Ki turned out to be 131 nM.

For the compound `N#Cc1ccc(COCC2CC(c3ccc(CN4CCCC4)cc3)C2)cc1` (centres unmarked) [Example 7, 4-[3-(4-Pyrrolidin-1-ylmethyl-phenyl)-cyclobutylmethoxymethyl]-benzonitrile], the Ki worked out at 99.2 nM.

Regarding `c1cnc(OCC2CC(c3ccc(CN4CCCC4)cc3)C2)cn1` (centres unmarked) [Example 40, 2-[3-(4-Pyrrolidin-1-ylmethyl-phenyl)-cyclobutylmethoxy]-pyrazine], the Ki was 74.3 nM.

Turning to `Cc1cc(C(=O)Nc2ccccc2)nc(OC[C@H]2C[C@@H](c3ccc(CN4CCCC4)cc3)C2)n1` [Example 83, cis-6-Methyl-2[3-(4-pyrrolidin-1-ylmethyl-phenyl)-cyclobutylmethoxy]-pyrimidine-4-carboxylic acid phenylamide], the Ki is 68.8 nM.

With `c1ccc2c(c1)CN(C[C@H]1C[C@H](c3ccc(CN4CCCC4)cc3)C1)C2` [Example 125, trans-2-[3-(4-Pyrrolidin-1-ylmethyl-phenyl)-cyclobutylmethyl]-2,3-dihydro-1H-isoindole], the Ki was 1.77 nM.

As for `c1cc([C@H]2C[C@@H](CN3CCCCC3)C2)ccc1CN1CCCC1` [Example 104, cis-1-[3-(4-Pyrrolidin-1-ylmethyl-phenyl)-cyclobutylmethyl]-piperidine], the Ki turned out to be 2.78 nM.

`c1cc([C@H]2C[C@@H](CN3CCCC3)C2)ccc1CN1CCCC1` [Example 103, cis-1-[3-(4-Pyrrolidin-1-ylmethyl-phenyl)-cyclobutylmethyl]-pyrrolidine]: the Ki amounted to 3.93 nM.

For the compound `CC1CCCCN1C[C@H]1C[C@H](c2ccc(CN3CCCC3)cc2)C1` (relative stereo) [Example 117, trans-2-Methyl-1-[3-(4-pyrrolidin-1-ylmethyl-phenyl)-cyclobutylmethyl]-piperidine], the Ki was determined as 0.73 nM.

With `COc1ccc(OCC2CC(c3ccc(CN4CCCC4)cc3)C2)nn1` (centres unmarked) [Example 44, 3-Methoxy-6-[3-(4-pyrrolidin-1-ylmethyl-phenyl)-cyclobutylmethoxy]-pyridazine], the Ki came out at 44.4 nM.

In the case of `Fc1cnc(OCC2CC(c3ccc(CN4CCCC4)cc3)C2)nc1C1CCNCC1` (centres unmarked) [Example 74, 5-Fluoro-4-piperidin-4-yl-2-[3-(4-pyrrolidin-1-ylmethyl-phenyl)-cyclobutylmethoxy]-pyrimidine], the Ki amounted to 12.5 nM.

With `c1cc([C@H]2C[C@H](CN3CCCCC3)C2)ccc1CN1CCCC1` [Example 108, trans-1-[3-(4-Pyrrolidin-1-ylmethyl-phenyl)-cyclobutylmethyl]-piperidine], the Ki was 0.58 nM.

As for `OC1(c2ccc(CN3CCCC3)cc2)CC(COCc2ccccc2)C1` (centres unmarked) [Example 1, 3-Benzyloxymethyl-1-(4-pyrrolidin-1-ylmethyl-phenyl)-cyclobutanol], the Ki worked out at 8.34 nM.

For `C[C@@H]1CN(C[C@H]2C[C@@H](c3ccc(CN4CCCC4)cc3)C2)C[C@H](C)O1` [Example 106, cis-(2R,6S)-2,6-Dimethyl-4-[3-(4-pyrrolidin-1-ylmethyl-phenyl)-cyclobutylmethyl]-morpholine], the Ki came to 8.35 nM.

Consider `c1ccc(C2CCCN2C[C@H]2C[C@@H](c3ccc(CN4CCCC4)cc3)C2)nc1` (relative stereo) [Example 105, cis-2-{1-[3-(4-Pyrrolidin-1-ylmethyl-phenyl)-cyclobutylmethyl]-pyrrolidin-2-yl}-pyridine], for which the Ki was 5.38 nM.

With `CCc1cnc(OC[C@H]2C[C@H](c3ccc(CN4CCCC4)cc3)C2)nc1` [Example 57, trans-5-Ethyl-2-[3-(4-pyrrolidin-1-ylmethyl-phenyl)-cyclobutylmethoxy]-pyrimidine], the Ki was 101 nM.

Turning to `CN(Cc1ccccc1)C[C@H]1C[C@H](c2ccc(CN3CCCC3)cc2)C1` [Example 116, trans-Benzyl-methyl-[3-(4-pyrrolidin-1-ylmethyl-phenyl)-cyclobutylmethyl]-amine], the Ki stood at 2.82 nM.
